Results: PMC8126888 (RSC Medicinal Chemistry, 2020)
Where two headings read alike, the source gives them in different places.

What was measured:
[1] = system: primary peritoneal mouse macrophages (PMM); assay: cells; details: Macrophage, read-out: PMM IC50
[2] = system: Trypanosoma cruzi, Tulahuen CL2, beta-galactosidase strain; assay: microbe, parasite or virus in culture; details: MRC5, read-out: T. cruzi Tulahuen C4 (LacZ) IC50
[3] = system: Leishmania infantum MHOM/MA(BE)/67/ITMAP263 intracellular amastigotes; assay: microbe, parasite or virus in culture; details: Macrophage, in Mus musculus
in vitro [4] = details: human, microsomes, pH 7.4, HLM CLint, human liver microsomes
in vitro [5] = details: human
in vitro [6] = details: PAMPA
physchem = details: HPLC, Ascentis Express RP Amide column, pH 7.4, eLogD, experimental
in vitro [7] = details: mouse, microsomes, pH 7.4, MLM CLint, mouse liver microsomes
[8] = read-out: L. Inf. pIC50, from L. infantum intracellular amastigote IC50 (converted)
[9] = read-out: L. infantum MHOM/MA(BE)/67/ITMAP263 intracellular amastigotes IC50, intracellular amastigotes

Row | Compound | IC50 [1] [µM] | IC50 [2] [µM] | IC50 [3, 8] [µM] | IC50 [3, 9] [µM] | microsomal CLint at 0.5 μM (in vitro [4]) [µL/min/mg] | CC50 at 3 days (in vitro [5]) [µM] | Papp (in vitro [6]) [×10⁻⁶ cm/s] | chromatographic logD (physchem) | microsomal CLint at 0.5 μM (in vitro [7]) [µL/min/mg]
1 | COCCN(Cc1ccc(F)cc1)S(=O)(=O)c1cc(C#N)ccc1OC [DNDI0003368395] | > 64 | > 64 | 8.91 | 8.88 | < 23 | > 64 | 15.3 | – | –
2 | COc1ncccc1S(=O)(=O)N(Cc1ccccc1)Cc1ccccc1 [DNDI0003368299] | > 64 | 6.34 | 0.646 | 0.64 | 849 | 3.81 | 2.05 | – | –
3 | O=S1(=O)NC(Cc2ccccc2)COc2ccc(F)cc21 (stereo not drawn) [DNDI0003368460] | > 64 | > 64 | > 64 | > 64 | – | > 64 | 26.2 | 3.3 | –
4 | CN(C)CCN(Cc1ccccc1)S(=O)(=O)c1ccc(N)cc1 [DNDI0003368290] | > 64 | > 64 | > 64 | > 64 | 56 | > 64 | 0.88 | 2.5 | –
5 | COC(=O)C(Cc1ccccc1)NS(=O)(=O)c1ccccc1Br (stereo not drawn) [DNDI0003369003] | > 64 | 58 | > 64 | > 64 | – | > 64 | 20.4 | 3.4 | –
6 | COc1ccc(OC)c(S(=O)(=O)N(Cc2ccccc2)C2CCCN(C(C)=O)C2)c1 (stereo not drawn) [DNDI0003367307] | > 64 | 54.3 | > 64 | > 64 | – | > 64 | 16.4 | 3.3 | –
7 | COc1ccc(C(=O)O)cc1S(=O)(=O)N(Cc1ccccc1)Cc1ccccc1 [DNDI0003368287] | > 64 | > 64 | 57.5 | 57 | < 23 | > 64 | 17.8 | – | –
8 | O=S(=O)(c1cc(F)ccc1F)N(CCO)Cc1ccccc1 [DNDI0003368289] | > 64 | 47.2 | > 64 | > 64 | < 23 | > 64 | 15.7 | 3.2 | –
9 | COc1ccc(OC)c(S(=O)(=O)N(Cc2ccc(F)cc2)Cc2nc(C)no2)c1 [DNDI0003368295] | > 64 | 30 | 7.76 | 7.75 | 350 | > 64 | 8.92 | – | –
10 | CN(C)CCN(Cc1ccccc1)S(=O)(=O)c1ccc(NC(=O)CCCO)cc1 [DNDI0003368293] | > 64 | > 64 | > 64 | > 64 | < 23 | > 64 | 0.21 | 2.9 | –
11 | C=C(c1ccc(F)cc1)N(Cc1ccccc1)S(=O)(=O)c1cc(Cl)ccc1O [DNDI0003371156] | 8 | 2.26 | 7.41 | 7.44 | – | 3.61 | 1.41 | 5.1 | –
12 | CCCCOc1ncccc1S(=O)(=O)NCc1ccc(F)cc1 [DNDI0003368396] | > 64 | 29.6 | 8.71 | 8.73 | 1650 | > 64 | 14.9 | 3.8 | –
13 | COc1ccc(CN2CCOCC2)cc1S(=O)(=O)N(Cc1ccc(F)cc1)Cc1ccc(F)cc1 [DNDI0003370082] | > 64 | 1.56 | 0.525 | 0.52 | 49 | > 64 | 0.74 | – | 3200
